This is an account of results in patent US12435068B2, “Anthelmintic compounds” (Elanco Animal Health GmBh, priority 2018, dated 2025).

Experiment [1] deals with C. elegans Slo-1a (Caenorhabditis elegans, UniProt Q95V25).
Description: Cells were cultured at 37° C. and 5% CO2 in MEMalpha with Gutamax I (Invitrogen, Nr.: 32571), supplemented with 10% (v/v) heat inactivated fetal bovine serum (Invitrogen, Nr.: 10500), G418 (1 mg/ml, Invitrogen, Nr.: 10131). Cells were detached using Accutase (Sigma, Nr.: A6964).
Membrane Potential Measurements
Laboratory compound testing was performed on 384-well microtiter plates (MTPs, Greiner, Nr.: 781092). 8000 cells/well were plated onto 384-well MTPs and cultured for 20 to 24 hours at 37° C. and 5% CO2. After removal of the cell culture medium, the cells were washed once with tyrode (150 mM NaCl, 0.3 mM KCl, 2 mM CaCl2, 1 mM MgCl2, 0.8 mM NaH2PO4, 5 mM Glucose, 28 mM Hepes, pH 7.4) and then loaded with the voltage sensitive dye of the Membrane Potential Assay Kit diluted in tyrode for 1 h at room temperature.
After starting the measurement of fluorescence using a FLIPR Tetra (Molecular Devices, Exc. 510-545 nm, Emm. 565-625 nm), test compounds were added followed by the addition of KCl tyrode (final assay concentration: 70 mM KCl, 2 mM CaCl2, 1 mM MgCl2, 0.8 mM NaH2PO4, 5 mM Glucose, 28 mM Hepes, pH 7.4, including the voltage sensitive dye). The measurement was completed after 7 minutes.
The subject of experiment [2] is Dirofilaria immitis microfilariae. In words: In Vitro Assay 2: Dirofilaria immitis microfilariae (DIROIM L1) motility. Conditions: 72 h, read-out: EC50 ppm. It counts as cell-based.

Molecules are shown by their SMILES. Values after ≈ are worked out from the molar mass of the structure shown.

C. elegans Slo-1a, sequence (Q95V25 whole entry): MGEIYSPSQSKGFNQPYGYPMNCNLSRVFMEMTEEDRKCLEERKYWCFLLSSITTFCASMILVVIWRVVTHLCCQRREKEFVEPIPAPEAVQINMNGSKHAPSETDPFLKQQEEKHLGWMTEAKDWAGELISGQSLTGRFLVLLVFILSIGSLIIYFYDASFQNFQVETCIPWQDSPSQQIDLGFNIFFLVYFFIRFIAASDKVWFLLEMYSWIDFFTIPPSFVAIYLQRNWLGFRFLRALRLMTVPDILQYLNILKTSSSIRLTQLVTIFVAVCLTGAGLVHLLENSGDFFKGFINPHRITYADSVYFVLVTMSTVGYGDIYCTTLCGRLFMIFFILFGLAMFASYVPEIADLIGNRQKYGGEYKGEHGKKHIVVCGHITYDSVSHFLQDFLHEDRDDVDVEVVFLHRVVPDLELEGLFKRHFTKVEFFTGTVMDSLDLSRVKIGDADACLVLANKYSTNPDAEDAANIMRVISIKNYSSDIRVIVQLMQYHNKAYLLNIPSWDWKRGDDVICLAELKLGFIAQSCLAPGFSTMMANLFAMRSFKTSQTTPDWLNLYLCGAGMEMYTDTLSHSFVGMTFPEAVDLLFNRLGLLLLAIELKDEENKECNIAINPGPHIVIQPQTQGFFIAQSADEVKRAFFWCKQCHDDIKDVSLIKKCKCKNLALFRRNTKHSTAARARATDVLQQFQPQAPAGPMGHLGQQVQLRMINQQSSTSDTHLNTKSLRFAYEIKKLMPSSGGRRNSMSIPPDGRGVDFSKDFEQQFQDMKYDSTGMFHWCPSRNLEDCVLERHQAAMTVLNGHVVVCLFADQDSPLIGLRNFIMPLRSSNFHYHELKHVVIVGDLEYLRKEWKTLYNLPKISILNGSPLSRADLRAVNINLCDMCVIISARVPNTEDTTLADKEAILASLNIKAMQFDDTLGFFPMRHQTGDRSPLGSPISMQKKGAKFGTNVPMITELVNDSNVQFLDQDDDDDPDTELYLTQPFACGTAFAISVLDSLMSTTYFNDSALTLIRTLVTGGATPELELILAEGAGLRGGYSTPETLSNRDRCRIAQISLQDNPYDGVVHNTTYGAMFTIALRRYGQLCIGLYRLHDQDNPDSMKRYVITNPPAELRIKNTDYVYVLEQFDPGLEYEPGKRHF

Consider `CC(C)c1c(C(=O)N[C@H]2CCOc3ccccc32)sc2c(-c3cc(Cl)cc(Cl)c3)cccc12` [Example Compound S1-1, 7-(3,5-Dichlorophenyl)-N-[(4S)-3,4-dihydro-2H-chromen-4-yl]-3-isopropyl-1-benzothiophene-2-carboxamide], for which the values for the EC50 in experiment [1] and in experiment [2] were 2.51 nM and 0.08 µg/mL (≈ 0.161 µM), respectively.

On to `CC(C)c1c(C(=O)N[C@H]2CCOc3ccccc32)sc2c(-c3ccc(F)c(F)c3)cccc12` [Example Compound S1-4, 7-(3,4-Difluorophenyl)-N-[(4S)-3,4-dihydro-2H-chromen-4-yl]-3-isopropyl-1-benzothiophene-2-carboxamide], for which the EC50 in experiment [1] is 50.1 nM; in experiment [2], 0.77 µg/mL (≈ 1.66 µM).

In the case of `CN(C)c1c(C(=O)N[C@H]2CCOc3ccccc32)sc2c(-c3cc(Cl)cc(Cl)c3)cccc12` [Example Compound S1-5, 7-(3,5-Dichlorophenyl)-N-[(4S)-3,4-dihydro-2H-chromen-4-yl]-3-(dimethylamino)-1-benzothiophene-2-carboxamide], the values for the 50% effective concentration (EC50) in experiment [1] and in experiment [2] were 25.1 nM and 0.25 µg/mL (≈ 0.503 µM), respectively.

Turning to `CN(C)c1c(C(=O)N[C@H]2CCOc3ccccc32)sc2c(-c3cccc(Cl)c3)cccc12` [Example Compound S1-6, 7-(3-Chlorophenyl)-N-[(4S)-3,4-dihydro-2H-chromen-4-yl]-3-(dimethylamino)-1-benzothiophene-2-carboxamide], the EC50 in experiment [1] is 31.6 nM; in experiment [2] it was 0.25 µg/mL (≈ 0.54 µM).

On to `CN(C)c1c(C(=O)N[C@H]2CCOc3ccccc32)sc2c(-c3cccc(Cl)c3Cl)cccc12` [Example Compound S1-7, 7-(2,3-Dichlorophenyl)-N-[(4S)-3,4-dihydro-2H-chromen-4-yl]-3-(dimethylamino)-1-benzothiophene-2-carboxamide], for which the values for the concentration for a half-maximal effect (EC50) in experiment [1] and in experiment [2] were 10 nM and 0.11 µg/mL (≈ 0.221 µM), respectively.

`CN(C)c1c(C(=O)N[C@H]2CCOc3ccccc32)sc2c(-c3ccc(F)c(F)c3)cccc12` [Example Compound S1-8, 7-(3,4-Difluorophenyl)-N-[(4S)-3,4-dihydro-2H-chromen-4-yl]-3-(dimethylamino)-1-benzothiophene-2-carboxamide]: the EC50 in experiment [1] was 3160 nM; in experiment [2] it was 0.63 µg/mL (≈ 1.36 µM).

`COc1c(C(=O)N[C@H]2CCOc3ccccc32)sc2c(-c3cc(Cl)cc(Cl)c3)cccc12` [Example Compound S1-9, 7-(3,5-Dichlorophenyl)-N-[(4S)-3,4-dihydro-2H-chromen-4-yl]-3-methoxy-1-benzothiophene-2-carboxamide]: the EC50 is 251 nM in experiment [1] and 0.27 µg/mL (≈ 0.557 µM) in experiment [2].

`COc1c(C(=O)N[C@H]2CCOc3ccccc32)sc2c(-c3cccc(Cl)c3)cccc12` [Example Compound S1-10, 7-(3-Chlorophenyl)-N-[(4S)-3,4-dihydro-2H-chromen-4-yl]-3-methoxy-1-benzothiophene-2-carboxamide]: the concentration for a half-maximal effect (EC50) is 398 nM in experiment [1] and 0.37 µg/mL (≈ 0.822 µM) in experiment [2].

Turning to `O=C(N[C@H]1CCOc2ccccc21)c1sc2c(-c3cccc(Cl)c3Cl)cccc2c1Cl` [Example Compound S1-12, 3-Chloro-7-(2,3-dichlorophenyl)-N-[(4S)-3,4-dihydro-2H-chromen-4-yl]-1-benzothiophene-2-carboxamide], the 50% effective concentration (EC50) in experiment [1] is 158 nM; in experiment [2], 0.1 µg/mL (≈ 0.205 µM).

With `CN(C)c1c(C(=O)N[C@H]2CCOc3ccccc32)sc2c(-c3cccc(Cl)c3Cl)nccc12` [Example Compound S1-13, 7-(2,3-Dichlorophenyl)-N-[(4S)-3,4-dihydro-2H-chromen-4-yl]-3-(dimethylamino)thieno[2,3-c]pyridine-2-carboxamide], the EC50 in experiment [1] is 15.8 nM; in experiment [2] it was 0.08 µg/mL (≈ 0.161 µM).

For the molecule `COc1c(C(=O)N[C@H]2CCOc3ccccc32)sc2c(-c3cc(Cl)cc(Cl)c3)nccc12` [Example Compound S1-14, 7-(3,5-Dichlorophenyl)-N-[(4S)-3,4-dihydro-2H-chromen-4-yl]-3-methoxythieno[2,3-c]pyridine-2-carboxamide], the EC50 is 794 nM in experiment [1] and 2 µg/mL (≈ 4.12 µM) in experiment [2].

For `COc1c(C(=O)N[C@H]2CCOc3ccccc32)sc2c(-c3cccc(Cl)c3)nccc12` [Example Compound S1-15, 7-(3-Chlorophenyl)-N-[(4S)-3,4-dihydro-2H-chromen-4-yl]-3-methoxythieno[2,3-c]pyridine-2-carboxamide], the EC50 was 794 nM in experiment [1] and above 2 µg/mL in experiment [2].

As to `COc1c(C(=O)N[C@H]2CCOc3ccccc32)sc2c(-c3cccc(Cl)c3Cl)nccc12` [Example Compound S1-16, 7-(2,3-Dichlorophenyl)-N-[(4S)-3,4-dihydro-2H-chromen-4-yl]-3-methoxythieno[2,3-c]pyridine-2-carboxamide], the EC50 in experiment [1] is 25.1 nM; in experiment [2], 0.18 µg/mL (≈ 0.371 µM).

For the molecule `O=C(N[C@H]1CCOc2ccccc21)c1sc2c(-c3cccc(Cl)c3Cl)ccc(F)c2c1N1CCOCC1` [Example Compound S1-17, 7-(2,3-Dichlorophenyl)-N-[(4S)-3,4-dihydro-2H-chromen-4-yl]-4-fluoro-3-(morpholin-4-yl)-1-benzothiophene-2-carboxamide], the 50% effective concentration (EC50) in experiment [1] is 50.1 nM; in experiment [2], 0.52 µg/mL (≈ 0.933 µM).

With `O=C(N[C@H]1CCOc2ccccc21)c1sc2c(-c3cc(Cl)cc(Cl)c3)ccc(F)c2c1N1CCOCC1` [Example Compound S1-18, 7-(3,5-Dichlorophenyl)-N-[(4S)-3,4-dihydro-2H-chromen-4-yl]-4-fluoro-3-(morpholin-4-yl)-1-benzothiophene-2-carboxamide], the concentration for a half-maximal effect (EC50) in experiment [1] was 126 nM; in experiment [2] it was 0.27 µg/mL (≈ 0.484 µM).

With `Cn1c(C(=O)N[C@H]2CCOc3ccccc32)nc2c(-c3cccc(Cl)c3Cl)ccnc21` [Example Compound S2-1, 7-(2,3-Dichlorophenyl)-N-[(4S)-3,4-dihydro-2H-chromen-4-yl]-3-methyl-3H-imidazo[4,5-b]pyridine-2-carboxamide], the concentration giving a half-maximal response (EC50) in experiment [1] was 31.6 nM; in experiment [2] it was 0.63 µg/mL (≈ 1.39 µM).

In the case of `Cn1c(C(=O)N[C@H]2CCc3ccccc32)nc2c(-c3cccc(Cl)c3Cl)ccnc21` [Example Compound S2-2, 7-(2,3-Dichlorophenyl)-N-[(1S)-2,3-dihydro-1H-inden-1-yl]-3-methyl-3H-imidazo[4,5-b]pyridine-2-carboxamide], the EC50 in experiment [1] is 501 nM; in experiment [2], 0.37 µg/mL (≈ 0.846 µM).

On to `CC(C)n1c(C(=O)N[C@H]2CCOc3ccccc32)cc2c(-c3cc(Cl)nc(Cl)c3)cccc21` [Example Compound S2-3, 4-(2,6-Dichloropyridin-4-yl)-N-[(4S)-3,4-dihydro-2H-chromen-4-yl]-1-(propan-2-yl)-1H-indole-2-carboxamide], for which the EC50 in experiment [1] is 100 nM; in experiment [2], above 2 µg/mL.

Turning to `CC(C)n1c(C(=O)N[C@H]2CCOc3ccccc32)cc2c(-c3cc(Cl)cc(Cl)c3Cl)cccc21` [Example Compound S2-4, N-[(4S)-3,4-Dihydro-2H-chromen-4-yl]-1-(propan-2-yl)-4-(2,3,5-trichlorophenyl)-1H-indole-2-carboxamide], the concentration for a half-maximal effect (EC50) in experiment [1] was 15.8 nM; in experiment [2], 0.02 µg/mL (≈ 0.0389 µM).

`CC(C)n1c(C(=O)N[C@H]2CCOc3ccccc32)cc2c(-c3cc(Cl)cc(Cl)c3)cccc21` [Example Compound S2-5, 4-(3,5-Dichlorophenyl)-N-[(4S)-3,4-dihydro-2H-chromen-4-yl]-1-(propan-2-yl)-1H-indole-2-carboxamide]: the concentration for a half-maximal effect (EC50) in experiment [1] is 25.1 nM; in experiment [2], 0.06 µg/mL (≈ 0.125 µM).

With `CC(C)n1c(C(=O)N[C@H]2CCOc3ccccc32)cc2c(-c3cccc(Cl)c3Cl)cccc21` [Example Compound S2-7, 4-(2,3-Dichlorophenyl)-N-[(4S)-3,4-dihydro-2H-chromen-4-yl]-1-(propan-2-yl)-1H-indole-2-carboxamide], the concentration for a half-maximal effect (EC50) in experiment [1] was 20 nM; in experiment [2], 0.01 µg/mL (≈ 0.0209 µM).

Regarding `CC(C)c1c(C(=O)N[C@H]2CCOc3ccccc32)nc2c(-c3cccc(Cl)c3Cl)cccn12` [Example Compound S3-1, 8-(2,3-Dichlorophenyl)-N-[(4S)-3,4-dihydro-2H-chromen-4-yl]-3-(propan-2-yl)imidazo[1,2-a]pyridine-2-carboxamide], the EC50 in experiment [1] was 251 nM; in experiment [2], 0.63 µg/mL (≈ 1.31 µM).

On to `O=C(N[C@H]1CCOc2ccccc21)c1cnc2c(cnn2-c2c(F)cccc2F)c1Cl` [Example Compound S4-1, 4-Chloro-1-(2,6-difluorophenyl)-N-[(4S)-3,4-dihydro-2H-chromen-4-yl]-1H-pyrazolo[3,4-b]pyridine-5-carboxamide], for which the EC50 in experiment [1] was 1120 nM; in experiment [2], 0.41 µg/mL (≈ 0.93 µM).

With `Cc1nn(-c2cc(Cl)cc(Cl)c2)c2ncc(C(=O)N[C@H]3CCOc4ccccc43)c(N(C)C)c12` [Example Compound S4-2, 1-(3,5-Dichlorophenyl)-N-[(4S)-3,4-dihydro-2H-chromen-4-yl]-4-(dimethylamino)-3-methyl-1H-pyrazolo[3,4-b]pyridine-5-carboxamide], the 50% effective concentration (EC50) in experiment [1] is 2000 nM; in experiment [2] it was above 2 µg/mL.

In the case of `Cc1nn(-c2c(F)cccc2F)c2ncc(C(=O)N[C@H]3CCOc4ccccc43)c(N(C)C)c12` [Example Compound S4-3, 1-(2,6-Difluorophenyl)-N-[(4S)-3,4-dihydro-2H-chromen-4-yl]-4-(dimethylamino)-3-methyl-1H-pyrazolo[3,4-b]pyridine-5-carboxamide], the half-maximal effective concentration (EC50) is 158 nM in experiment [1] and 1.82 µg/mL (≈ 3.93 µM) in experiment [2].

For `CN(C)c1c(C(=O)N[C@H]2CCOc3ccccc32)cnc2c1cnn2-c1cc(Cl)cc(Cl)c1` [Example Compound S4-4, 1-(3,5-Dichlorophenyl)-N-[(4S)-3,4-dihydro-2H-chromen-4-yl]-4-(dimethylamino)-1H-pyrazolo[3,4-b]pyridine-5-carboxamide], the EC50 in experiment [1] was 501 nM; in experiment [2], above 2 µg/mL.

`CN(C)c1c(C(=O)N[C@H]2CCOc3ccccc32)cnc2c1cnn2-c1c(F)cccc1F` [Example Compound S4-5, 1-(2,6-Difluorophenyl)-N-[(4S)-3,4-dihydro-2H-chromen-4-yl]-4-(dimethylamino)-1H-pyrazolo [3,4-b]pyridine-5-carboxamide]: the values for the EC50 in experiment [1] and in experiment [2] were 398 nM and above 2 µg/mL, respectively.
